Assay results from ChEMBL document CHEMBL1150771, “Synthesis and potency of novel uracil nucleotides and derivatives as P2Y2 and P2Y6 receptor agonists” (Bioorg Med Chem, 2008).

Key:
Homo sapiens = species on record: Homo sapiens; test: Selectivity for human P2Y2 receptor over human P2Y4 receptor
P2Y purinoceptor 4 = P2Y purinoceptor 4 (Homo sapiens, UniProt P51582); test: Agonist activity at human P2Y4 receptor expressed in human 1321N1 cells assessed as [3H]inositol phosphate accumulation by scintillation proximity assay; format: functional, cell-based
P2Y purinoceptor 6 = P2Y purinoceptor 6 (Homo sapiens, UniProt Q15077); test: Agonist activity at human P2Y6 receptor expressed in human 1321N1 cells assessed as [3H]inositol phosphate accumulation by scintillation proximity assay; format: functional, cell-based
P2Y purinoceptor 2 = P2Y purinoceptor 2 (Homo sapiens, UniProt P41231); test: Agonist activity at human P2Y2 receptor expressed in human 1321N1 cells assessed as [3H]inositol phosphate accumulation by scintillation proximity assay; format: functional, cell-based
Sequence of P2Y purinoceptor 2 (P41231 whole entry): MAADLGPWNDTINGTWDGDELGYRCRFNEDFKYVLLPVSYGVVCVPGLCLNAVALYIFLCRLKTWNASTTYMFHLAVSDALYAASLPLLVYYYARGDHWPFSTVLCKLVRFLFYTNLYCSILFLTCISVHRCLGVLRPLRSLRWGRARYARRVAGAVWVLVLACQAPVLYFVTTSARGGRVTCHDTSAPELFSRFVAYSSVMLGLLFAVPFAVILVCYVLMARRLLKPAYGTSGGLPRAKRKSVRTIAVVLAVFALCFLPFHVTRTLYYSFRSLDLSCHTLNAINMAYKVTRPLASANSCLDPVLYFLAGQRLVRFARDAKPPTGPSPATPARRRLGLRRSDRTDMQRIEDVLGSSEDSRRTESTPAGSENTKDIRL

Sequence of P2Y purinoceptor 6 (Q15077 whole entry): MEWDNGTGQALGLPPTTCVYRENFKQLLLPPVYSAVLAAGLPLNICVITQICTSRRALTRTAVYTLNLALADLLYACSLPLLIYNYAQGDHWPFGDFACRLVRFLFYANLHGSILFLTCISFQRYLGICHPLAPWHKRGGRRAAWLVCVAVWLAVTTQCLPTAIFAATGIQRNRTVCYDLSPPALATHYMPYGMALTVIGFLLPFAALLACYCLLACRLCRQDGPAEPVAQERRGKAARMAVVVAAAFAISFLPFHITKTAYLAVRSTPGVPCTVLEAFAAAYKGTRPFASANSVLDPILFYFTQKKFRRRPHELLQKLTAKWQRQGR
Sequence of P2Y purinoceptor 4 (P51582 whole entry): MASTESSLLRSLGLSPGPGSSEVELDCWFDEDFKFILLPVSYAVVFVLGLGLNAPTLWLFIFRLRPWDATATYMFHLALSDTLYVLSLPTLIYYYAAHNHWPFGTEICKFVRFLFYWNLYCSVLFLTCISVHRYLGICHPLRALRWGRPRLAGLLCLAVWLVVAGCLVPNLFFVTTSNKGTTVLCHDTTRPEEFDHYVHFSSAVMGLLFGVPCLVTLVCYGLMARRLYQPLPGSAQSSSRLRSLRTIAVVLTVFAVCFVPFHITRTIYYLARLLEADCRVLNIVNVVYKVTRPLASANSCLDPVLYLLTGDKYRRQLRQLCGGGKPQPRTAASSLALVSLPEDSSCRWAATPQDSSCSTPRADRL

Nc1ccn([C@H]2C[C@H](O)[C@@H](COP(=O)(O)OP(=O)(O)OP(=O)(O)OP(=O)(O)OC[C@H]3O[C@@H](n4ccc(=O)[nH]c4=S)[C@H](O)[C@@H]3O)O2)c(=O)n1
Ratio EC50 (Homo sapiens): 9
EC50 (P2Y purinoceptor 4): 0.71 µM
EC50 (P2Y purinoceptor 6): 1.05 µM
EC50 (P2Y purinoceptor 2): 0.08 µM

O=c1ccn([C@@H]2O[C@H](COP(=O)(O)OP(=O)(O)OP(=O)(O)OP(=O)(O)O)[C@@H](O)[C@H]2O)c(=O)[nH]1
EC50 (P2Y purinoceptor 4): 4.64 µM
EC50 (P2Y purinoceptor 6): 7.56 µM
EC50 (P2Y purinoceptor 2): 2.61 µM

O=c1ccn([C@@H]2O[C@H](COP(=O)(O)OP(=O)(O)OP(=O)(O)OP(=O)(O)O)[C@@H](O)[C@H]2O)c(=S)[nH]1
EC50 (P2Y purinoceptor 4): 5.52 µM
EC50 (P2Y purinoceptor 6): 6.83 µM
EC50 (P2Y purinoceptor 2): 0.6 µM

CSc1ccn([C@@H]2O[C@H](COP(=O)(O)OP(=O)(O)OP(=O)(O)O)[C@@H](O)[C@H]2O)c(=S)n1
EC50 (P2Y purinoceptor 4): 5.35 µM
EC50 (P2Y purinoceptor 6): > 10 µM
EC50 (P2Y purinoceptor 2): 0.91 µM

O=c1ccn([C@@H]2O[C@H](COP(=O)(O)OP(=O)(O)OP(=O)(O)O)[C@@H](O)[C@@H]2O)c(=S)[nH]1
EC50 (P2Y purinoceptor 4): 7.93 µM
EC50 (P2Y purinoceptor 2): 0.14 µM

O=c1ccn([C@@H]2O[C@H](COP(=O)(O)OP(=O)(O)OP(=O)(O)OP(=O)(O)O[C@H]3O[C@H](CO)[C@@H](O)[C@H](O)[C@H]3O)[C@@H](O)[C@H]2O)c(=O)[nH]1
EC50 (P2Y purinoceptor 4): 2.06 µM
EC50 (P2Y purinoceptor 6): 7.83 µM
EC50 (P2Y purinoceptor 2): 0.3 µM

O=c1ccn([C@@H]2O[C@H](COP(=O)(O)OP(=O)(O)OP(=O)(O)OP(=O)(O)OCC(O)CO)[C@@H](O)[C@H]2O)c(=O)[nH]1 (stereo not given in full)
EC50 (P2Y purinoceptor 4): 1.12 µM
EC50 (P2Y purinoceptor 6): 8.19 µM
EC50 (P2Y purinoceptor 2): 1.87 µM

N#CCCOP(=O)(O)OP(=O)(O)OP(=O)(O)OP(=O)(O)OC[C@H]1O[C@@H](n2ccc(=O)[nH]c2=O)[C@H](O)[C@@H]1O
EC50 (P2Y purinoceptor 4): 1.96 µM
EC50 (P2Y purinoceptor 6): > 10 µM
EC50 (P2Y purinoceptor 2): 1.7 µM

O=c1ccn([C@@H]2O[C@H](COP(=O)(O)OP(=O)(O)OP(=O)(O)OP(=O)(O)OC[C@@H]3O[C@@](O)(CO)[C@H](O)[C@H]3O)[C@@H](O)[C@H]2O)c(=O)[nH]1
EC50 (P2Y purinoceptor 4): 6.3 µM
EC50 (P2Y purinoceptor 2): 3.33 µM

O=c1ccn([C@@H]2O[C@H](COP(=O)(O)OP(=O)(O)OP(=O)(O)OP(=O)(O)Oc3ccccc3)[C@@H](O)[C@H]2O)c(=O)[nH]1
EC50 (P2Y purinoceptor 2): 1.89 µM

NC(=O)N[C@@H]1[C@H](O)[C@@H](COP(=O)(O)OP(=O)(O)OP(=O)(O)O)O[C@H]1n1ccc(=O)[nH]c1=O
EC50 (P2Y purinoceptor 4): 4.64 µM
EC50 (P2Y purinoceptor 6): > 10 µM
EC50 (P2Y purinoceptor 2): 1.74 µM

O=c1ccn([C@@H]2O[C@H](COP(=O)(O)OP(=O)(O)OP(=O)(O)OP(=O)(O)OC[C@H]3OC(O)[C@@H](O)[C@@H](O)[C@@H]3O)[C@@H](O)[C@H]2O)c(=O)[nH]1 (stereo not given in full)
EC50 (P2Y purinoceptor 4): > 10 µM
EC50 (P2Y purinoceptor 6): > 10 µM
EC50 (P2Y purinoceptor 2): > 10 µM

O=c1ccn([C@@H]2O[C@H](COP(=O)(O)OP(=O)(O)C(Cl)(Cl)P(=O)(O)O)[C@@H](O)[C@H]2O)c(=S)[nH]1
EC50 (P2Y purinoceptor 6): > 10 µM
EC50 (P2Y purinoceptor 2): 2.51 µM

C[C@@]1(O)[C@H](O)[C@@H](COP(=O)(O)OP(=O)(O)OP(=O)(O)O)O[C@H]1n1ccc(=O)[nH]c1=O
EC50 (P2Y purinoceptor 4): 1.26 µM
EC50 (P2Y purinoceptor 2): 1.45 µM

Nc1nc2c(ncn2[C@H]2C[C@H](O)[C@@H](COP(=O)(O)OP(=O)(O)OP(=O)(O)OP(=O)(O)OC[C@H]3O[C@@H](n4ccc(=O)[nH]c4=O)[C@H](O)[C@@H]3O)O2)c(=O)[nH]1
EC50 (P2Y purinoceptor 4): 0.54 µM
EC50 (P2Y purinoceptor 6): 1.03 µM
EC50 (P2Y purinoceptor 2): 0.14 µM

COP(=O)(O)OP(=O)(O)OP(=O)(O)OP(=O)(O)OC[C@H]1O[C@@H](n2ccc(=O)[nH]c2=O)[C@H](O)[C@@H]1O
EC50 (P2Y purinoceptor 4): 2.7 µM
EC50 (P2Y purinoceptor 6): > 10 µM
EC50 (P2Y purinoceptor 2): 3.95 µM

O=c1ccn([C@@H]2O[C@H](COP(=O)(O)OP(=O)(O)C(F)(F)P(=O)(O)O)[C@@H](O)[C@H]2O)c(=S)[nH]1
EC50 (P2Y purinoceptor 4): 8.11 µM
EC50 (P2Y purinoceptor 6): 5.15 µM
EC50 (P2Y purinoceptor 2): 1.63 µM

O=c1ccn([C@@H]2O[C@H](COP(=O)(O)OP(=O)(O)C(Cl)(Cl)P(=O)(O)OP(=O)(O)OC[C@H]3O[C@@H](n4ccc(=O)[nH]c4=O)[C@H](O)[C@@H]3O)[C@@H](O)[C@H]2O)c(=O)[nH]1
EC50 (P2Y purinoceptor 2): 7.77 µM

O=c1[nH]c(=S)ccn1[C@@H]1O[C@H](COP(=O)(O)OP(=O)(O)OP(=O)(O)OP(=O)(O)OC[C@H]2O[C@@H](n3ccc(=S)[nH]c3=O)[C@H](O)[C@@H]2O)[C@@H](O)[C@H]1O
EC50 (P2Y purinoceptor 4): 0.08 µM
EC50 (P2Y purinoceptor 6): 2.03 µM
EC50 (P2Y purinoceptor 2): 0.03 µM

O=c1ccn([C@@H]2O[C@H](COP(=O)(O)OP(=O)(O)OP(=O)(O)OP(=O)(O)O[C@H]3O[C@H](CO)[C@H](O)[C@H](O)[C@H]3O)[C@@H](O)[C@H]2O)c(=O)[nH]1
EC50 (P2Y purinoceptor 4): 1.77 µM
EC50 (P2Y purinoceptor 6): 8.19 µM
EC50 (P2Y purinoceptor 2): 4.85 µM

Nc1cn([C@@H]2O[C@H](COP(=O)(O)OP(=O)(O)O)[C@@H](O)[C@H]2O)c(=O)[nH]c1=O
EC50 (P2Y purinoceptor 6): 0.61 µM

O=c1ccn([C@@H]2O[C@H](COP(=O)(O)OP(=O)(O)OP(=O)(O)OP(=O)(O)OC[C@H]3OC(O)C[C@@H](O)[C@@H]3O)[C@@H](O)[C@H]2O)c(=O)[nH]1 (stereo not given in full)
EC50 (P2Y purinoceptor 4): 4.32 µM
EC50 (P2Y purinoceptor 6): > 10 µM
EC50 (P2Y purinoceptor 2): 3.54 µM

O=c1ccn([C@@H]2O[C@H](COP(=O)(O)CP(=O)(O)O)[C@@H](O)[C@H]2O)c(=O)[nH]1
EC50 (P2Y purinoceptor 6): 0.66 µM

NC(=O)N[C@@H]1[C@H](O)[C@@H](COP(=O)(O)OP(=O)(O)O)O[C@H]1n1ccc(=O)[nH]c1=O
EC50 (P2Y purinoceptor 6): 4.7 µM

O=c1ccn([C@@H]2O[C@H](COP(=O)(O)OP(=O)(O)OP(=O)(O)O)[C@@H](O)[C@H]2O)c(=O)[nH]1 [URIDINE TRIPHOSPHATE]
EC50 (P2Y purinoceptor 4): 0.09 µM
EC50 (P2Y purinoceptor 6): > 10 µM
EC50 (P2Y purinoceptor 2): 0.06 µM

O=c1ccn([C@@H]2O[C@H](COP(=O)(O)OP(=O)(O)OP(=O)(O)OP(=O)(O)OC[C@@H]3OC(O)[C@@H](O)[C@H]3O)[C@@H](O)[C@H]2O)c(=O)[nH]1 (stereo not given in full)
EC50 (P2Y purinoceptor 4): 4.78 µM
EC50 (P2Y purinoceptor 6): > 10 µM
EC50 (P2Y purinoceptor 2): 1.88 µM

Nc1ccn([C@H]2C[C@H](O)[C@@H](COP(=O)(O)OP(=O)(O)OP(=O)(O)OP(=O)(O)OC[C@H]3O[C@@H](n4ccc(=O)[nH]c4=O)[C@H](O)[C@@H]3O)O2)c(=O)n1 [DENUFOSOL]
EC50 (P2Y purinoceptor 4): 0.14 µM
EC50 (P2Y purinoceptor 6): 0.95 µM
EC50 (P2Y purinoceptor 2): 0.14 µM

O=c1ccn([C@@H]2O[C@H](COP(=O)(O)OP(=O)(O)C(F)(F)P(=O)(O)OP(=O)(O)OC[C@H]3O[C@@H](n4ccc(=O)[nH]c4=O)[C@H](O)[C@@H]3O)[C@@H](O)[C@H]2O)c(=O)[nH]1
EC50 (P2Y purinoceptor 4): > 10 µM
EC50 (P2Y purinoceptor 6): > 10 µM
EC50 (P2Y purinoceptor 2): 2.27 µM

O=c1ccn([C@@H]2O[C@H](COP(=O)(O)OP(=O)(O)OP(=O)(O)OP(=O)(O)OC3CCCCC3)[C@@H](O)[C@H]2O)c(=O)[nH]1
EC50 (P2Y purinoceptor 4): > 10 µM
EC50 (P2Y purinoceptor 6): > 10 µM
EC50 (P2Y purinoceptor 2): 5.86 µM

O=c1ccn([C@@H]2O[C@H](COP(=O)(O)OP(=O)(O)OP(=O)(O)OC[C@H]3O[C@@H](n4cc(I)c(=O)[nH]c4=O)[C@H](O)[C@@H]3O)[C@H]3OC(Cc4ccccc4)O[C@H]32)c(=O)[nH]1 (stereo not given in full)
EC50 (P2Y purinoceptor 6): 5.49 µM
EC50 (P2Y purinoceptor 2): 9.97 µM

O=c1ccn([C@@H]2O[C@H](COP(=O)(O)OP(=O)(O)OP(=O)(O)OP(=O)(O)OP(=O)(O)O)[C@@H](O)[C@H]2O)c(=S)[nH]1
EC50 (P2Y purinoceptor 4): 5.27 µM
EC50 (P2Y purinoceptor 6): 7.33 µM
EC50 (P2Y purinoceptor 2): 0.57 µM

O=c1ccn([C@@H]2O[C@H](COP(=O)(O)OP(=O)(O)OP(=O)(O)OC[C@H]3O[C@@H](n4ccc(=O)[nH]c4=O)[C@H](O)[C@@H]3O)[C@@H](O)[C@H]2O)c(=O)[nH]1
EC50 (P2Y purinoceptor 4): 0.87 µM
EC50 (P2Y purinoceptor 6): 0.27 µM
EC50 (P2Y purinoceptor 2): 1.31 µM

O=c1[nH]c(=S)ccn1[C@@H]1O[C@H](COP(=O)(O)OP(=O)(O)OP(=O)(O)OP(=O)(O)O)[C@@H](O)[C@H]1O
EC50 (P2Y purinoceptor 4): 0.28 µM
EC50 (P2Y purinoceptor 6): 6.46 µM
EC50 (P2Y purinoceptor 2): 0.07 µM
